# From patent publication US8859574B2 (IRM LLC, priority 2008, dated 2014)
# Biological target: T1, IGF-1R Ba/F3 (Homo sapiens, UniProt P08069)
# T1 construct: fused on or other part: TEL- (or BCR-) IGF-1R in Ba/F3: the kinase part holds the site
# Assay: Ba/F3 Cell Viability Inhibition Assay (IGF-1R Ba/F3)
# Assay type: cell-based, murine
# Settings: Tel-TK transformed Ba/F3 cells, 48 hours, Britelite luminescence
# Summary of the method: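 IL-3-independent murine Ba/F3 cells transformed with a TEL/BCR-fused IGF-1R kinase were seeded at 3750 cells/well and exposed to serially diluted compound for 48 h at 37 °C. Viability was read by Britelite luminescence. IC50 is the concentration giving 50% of DMSO-control viability, from a logistic fit.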
# T1 sequence (P08069 999-1274 limits assumed): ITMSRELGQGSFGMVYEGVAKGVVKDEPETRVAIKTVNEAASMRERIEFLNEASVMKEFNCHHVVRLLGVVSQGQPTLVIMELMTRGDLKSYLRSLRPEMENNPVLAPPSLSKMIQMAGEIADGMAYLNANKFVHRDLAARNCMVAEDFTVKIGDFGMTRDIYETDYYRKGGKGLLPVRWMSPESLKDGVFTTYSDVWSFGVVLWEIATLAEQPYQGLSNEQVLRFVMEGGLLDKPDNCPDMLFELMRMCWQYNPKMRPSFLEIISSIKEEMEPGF
row,Structure (SMILES),IC50
1,"Cc1cc(Nc2nc(Nc3cc(C)c(C4CCN(CCS(C)(=O)=O)CC4)cc3F)ncc2Cl)n[nH]1 [Compound 55, 5-Chloro-N2-(2-fluoro-5-methyl-4-(1-(2-(methylsulfonyl)ethyl)piperidin-4-yl)phenyl)-N4-(5-methyl-1H-pyrazol-3-yl)pyrimidine-2,4-diamine]",0.024 µM
2,"Cc1cc(Nc2nc(Nc3cc(C)c(C4CCN(C(=O)C5CCCC(=O)N5)CC4)cc3F)ncc2Cl)n[nH]1 (stereo not drawn) [Compound 142, 6-(4-(4-(5-chloro-4-(5-methyl-1H-pyrazol-3-ylamino)pyrimidin-2-ylamino)-5-fluoro-2-methylphenyl)piperidine-1-carbonyl)piperidin-2-one]",0.282 µM
3,"Cc1cc(Nc2nc(Nc3cc(C)c(C4CCN(S(=O)(=O)CCCN5CCCC5)CC4)cc3C)ncc2Cl)n[nH]1 [Compound 233, 5-chloro-N2-(2,5-dimethyl-4-(1-(3-(pyrrolidin-l-yl)propylsulfonyl)piperidin-4-yl)phenyl)-N4-(5-methyl-1H-pyrazol-3-yl)pyrimidine-2,4-diamine]",0.054 µM
4,"Cc1cc(Nc2nc(Nc3cc(Cl)c(C4CCN(C(=O)CN(C)C)CC4)cc3C)ncc2Cl)n[nH]1 [Compound 74, 1-(4-(2-chloro-4-(5-chloro-4-(5-methyl-1H-pyrazol-3-ylamino)pyrimidin-2-ylamino)-5-methylphenyl)piperidin-1-yl)-2-(dimethylamino)ethanone]",0.007 µM
5,"Cc1cc(Nc2nc(Nc3cc(C)c(C4CCN(CC5CC5(F)F)CC4)cc3F)ncc2Cl)n[nH]1 (stereo not drawn) [Compound 235, 5-chloro-N-(4-(1-((2,2-difluorocyclopropyl)methyl)piperidin-4-yl)-2-fluoro-5-methylphenyl)-N^4-(5-methyl-1H-pyrazol-3-yl)pyrimidine-2,4-diamine]",0.063 µM
6,"Cc1cc(Nc2nc(Nc3cc(C)c(C4CCN(CCS(N)(=O)=O)CC4)cc3F)ncc2Cl)n[nH]1 [Compound 59, 2-(4-(4-(5-chloro-4-(5-methyl-1H-pyrazol-3-ylamino)pyrimidin-2-ylamino)-5-fluoro-2-methylphenyl)piperidin-1-yl)ethanesulfonamide]",0.038 µM
7,"Cc1cc(Nc2nc(Nc3cc(C)c(C4CCN(C)CC4)cc3F)ncc2Cl)n[nH]1 [Compound 1, 5-Chloro-N2-(2-fluoro-5-methyl-4-(1-methylpiperidin-4-yl)phenyl)-N4-(5-methyl-1H-pyrazol-3-yl)pyrimidine-2,4-diamine]",0.011 µM
8,"Cc1cc(Nc2nc(Nc3cc(C)c(C4CCN(CC(N)=O)C(C)C4)cc3F)ncc2Cl)n[nH]1 (stereo not drawn) [Compound 274, 2-(4-(4-(5-chloro-4-(5-methyl-1H-pyrazol-3-ylamino)pyrimidin-2-ylamino)-5-fluoro-2-methylphenyl)-2-methylpiperidin-1-yl)acetamide]",0.006 µM
9,"COCC(=O)N1CCC(c2cc(C)c(Nc3ncc(Cl)c(Nc4cc(C)[nH]n4)n3)cc2C)CC1 [Compound 106, 1-(4-(4-(5-chloro-4-(5-methyl-1H-pyrazol-3-ylamino)pyrimidin-2-ylamino)-2,5-dimethylphenyl)piperidin-1-yl)-2-methoxyethanone]",0.002 µM
10,"Cc1cc(Nc2nc(Nc3cc(C)c(C4CC[N+]([O-])(C5CS(=O)(=O)C5)CC4)cc3F)ncc2Cl)n[nH]1 (stereo not drawn) [Compound 295, 5-Chloro-N2-{4-[1-(1,1-dioxo-1λ6-thietan-3-yl)-1-oxide-piperidin-4-yl]-2-fluoro-5-methyl-phenyl}-N4-(5-ethyl-1H-pyrazol-3-yl)-pyrimidine-2,4-diamine]",0.039 µM
11,"Cc1cc(Nc2nc(Nc3cc(C)c(C4CCN(CCS(C)(=O)=O)CC4)cc3C)ncc2Cl)n[nH]1 [Compound 56, 5-chloro-N2-(2,5-dimethyl-4-(1-(2-(methylsulfonyl)ethyl)piperidin-4-yl)phenyl)-N4-(5-methyl-1H-pyrazol-3-yl)pyrimidine-2,4-diamine]",0.006 µM
12,"Cc1cc(Nc2nc(Nc3cc(C)c(C4CCN(C5CC5)CC4)cc3F)ncc2Cl)n[nH]1 [Compound 210, 5-chloro-N^2-(4-(1-cyclopropylpiperidin-4-yl)-2-fluoro-5-methylphenyl)-N^4-(5-methyl-1H-pyrazol-3-yl)pyrimidine-2,4-diamine]",0.032 µM
13,"Cc1cc(Nc2nc(Nc3cc(C)c(C4CCN(C5CS(=O)(=O)C5)CC4)cc3F)ncc2Cl)n[nH]1 [Compound 148, 5-chloro-N^2-(2-fluoro-5-methyl-4-(1-(1,1-dioxido-3-thietanyl)piperidin-4-yl)phenyl)-N^4-(5-methyl-1H-pyrazol-3-yl)pyrimidine-2,4-diamine]",0.018 µM
14,"CNC(C)(C)C(=O)N1CCC(c2cc(F)c(Nc3ncc(Cl)c(Nc4cc(C)[nH]n4)n3)cc2C)CC1 [Compound 87, 1-(4-(4-(5-chloro-4-(5-methyl-1H-pyrazol-3-ylamino)pyrimidin-2-ylamino)-5-fluoro-2-methylphenyl)piperidin-1-yl)-2-methyl-2-(methylamino)propan-1-one]",0.017 µM
15,"Cc1cc(Nc2nc(Nc3cc(C)c(C4CCN(C5CCOCC5)CC4)cc3C)ncc2Cl)n[nH]1 [Compound 252, 5-chloro-N2-(2,5-dimethyl-4-(1-(tetrahydro-2H-pyran-4-yl)piperidin-4-yl)phenyl)-N4-(5-methyl-1H-pyrazol-3-yl)pyrimidine-2,4-diamine]",0.014 µM
16,"Cc1cc(Nc2nc(Nc3cc(C)c(C4CCCNC4)cc3C)ncc2Cl)n[nH]1 (stereo not drawn) [Compound 15, 5-chloro-N2-(2,5-dimethyl-4-(piperidin-3-yl)phenyl)-N4-(5-methyl-1H-pyrazol-3-yl)pyrimidine-2,4-diamine]",0.05 µM
17,"Cc1cc(Nc2nc(Nc3cc(C)c(C4CCN(CC(N)=O)CC4)cc3C)ncc2Cl)n[nH]1 [Compound 37, 2-(4-(4-(5-chloro-4-(5-methyl-1H-pyrazol-3-ylamino)pyrimidin-2-ylamino)-2,5-dimethylphenyl)piperidin-1-yl)acetamide]",0.013 µM
18,"Cc1cc(C2CCN(C3CC3)CC2)c(C)cc1Nc1ncc(Cl)c(Nc2cc(C3CC3)[nH]n2)n1 [Compound 258, 5-chloro-N4-(5-cyclopropyl-1H-pyrazol-3-yl)-N2-(4-(1-cyclopropylpiperidin-4-yl)-2,5-dimethylphenyl)pyrimidine-2,4-diamine]",0.026 µM
19,"CCNC(=O)N1CCC(c2cc(C)c(Nc3ncc(Cl)c(Nc4cc(C)[nH]n4)n3)cc2C)CC1 [Compound 71, 4-(4-(5-chloro-4-(5-methyl-1H-pyrazol-3-ylamino)pyrimidin-2-ylamino)-2,5-dimethylphenyl)-N-ethylpiperidine-1-carboxamide]",0.002 µM
20,"Cc1cc(Nc2nc(Nc3cc(C)c(C4CCN(CCO)CC4)cc3C)ncc2Cl)n[nH]1 [Compound 23, 2-(4-(4-(5-chloro-4-(5-methyl-1H-pyrazol-3-ylamino)pyrimidin-2-ylamino)-2,5-dimethylphenyl)piperidin-1-yl)ethanol]",0.006 µM
21,"COc1cc(Nc2ncc(Cl)c(Nc3cc(C)[nH]n3)n2)c(C)cc1C1CCN(C[C@@H](O)C(F)(F)F)CC1 [Compound 228, (R)-3-(4-(4-(5-chloro-4-(5-methyl-1H-pyrazol-3-ylamino)pyrimidin-2-ylamino)-2-methoxy-5-methylphenyl)piperidin-1-yl)-1,1,1-trifluoropropan-2-ol]",0.023 µM
